From patent publication US8048927B2 (Besins Healthcare Luxembourg, priority 2004, dated 2011)

Key:
[1] = pharmacokinetics of 4-hydroxy tamoxifen gel in healthy premenopausal women (Example 3); format: in vivo, human; conditions: for Plasma concentration of 4-hydroxy tamoxifen, Range / Plasma concentration of 4-hydroxy tamoxifen, Mean ± SD / T(1stC < LOQ), first timepoint at which the plasma concentration was below the limit of quantification, Mean ± SD / AUC0-24, Mean ± SD / Cav = AUC0-24/24, Mean ± SD / Cmax, Mean ± SD / t1/2, Range / tmax, Mean ± SD: gel 57 mg/100 g; for T(1stC < LOQ), first timepoint at which the plasma concentration was below the limit of quantification, Mean ± SD: after last administration; for AUC0-24, Mean ± SD / Cav = AUC0-24/24, Mean ± SD / Cmax, Mean ± SD / t1/2, Range / tmax, Mean ± SD: last administration, day 25 of second cycle
Experimental: Each participant applied the gel daily for the duration of two menstrual cycles.
At the end of a menstrual cycle, each patient received a single dose, after which serial blood samples were collected at 0, 0.5, 1, 1.5, 2, 3, 4, 6, 12, 18, 24, 36, 48, and 72 hours.
On the first day of the following menstruation, treatment, which consisted of daily application of the gel over two menstrual cycles, began. Blood samples were collected 24 hours following the morning application of gel on days 7, 20 and 25 of the first and second cycles. On the last day of administration, day 25 of the second menstrual cycle, serial blood samples were collected prior to application and at 0.5, 1, 1.5, 2, 3, 4, 6, 12, 18, 24, 36, 48, and 72 hours after application of the gel.

[2] = human, in vivo
Experimental: The patients received [^3H]-labeled drug applied directly on the affected breasts at specified intervals ranging from 12 hours to 7 days before surgery to excise diseased tissue. Breast tissue from three regions: the tumor, tissue immediately surrounding the tumor, and normal tissue, was excised and immediately frozen in liquid nitrogen. Additionally, plasma and urine samples were obtained at scheduled intervals and frozen until analysis.

For `CCC(=C(c1ccc(O)cc1)c1ccc(OCCN(C)C)cc1)c1ccccc1` [4-hydroxy tamoxifen, 1-[4-(2-N-dimethylaminoethoxy)phenyl]-1-(4-hydroxyphenyl)-2-phenylbut-1-ene], which “Plasma concentration of 4-hydroxy tamoxifen, Range” value (“Plasma concentration … Range” for short) ([1]; 1 mg/day, First cycle Day 1, 0 hr) is on record?
The value was “(0-9.5) pg/mL”.

And the “Plasma concentration of 4-hydroxy tamoxifen, Mean ± SD” value ([1]; 1 mg/day, First cycle Day 7, 24 hr after application)?
Its value is 0.0144 ± 0.0131 ng/mL.

What about the “Plasma concentration of 4-hydroxy tamoxifen, Mean ± SD” value ([1]; 1 mg/day, First cycle Day 20, 24 hr after application) of the same molecule?
The value was 0.0181 ± 0.0158 ng/mL.

What about the “Plasma concentration of 4-hydroxy tamoxifen, Mean ± SD” value ([1]; 1 mg/day, First cycle Day 25, 24 hr after application) of the same molecule?
The value was 0.0198 ± 0.0162 ng/mL.

And the “Plasma concentration of 4-hydroxy tamoxifen, Mean ± SD” value ([1]; 1 mg/day, Second cycle Day 7, 24 hr after application)?
The value was 0.0222 ± 0.0164 ng/mL.

And the “Plasma concentration of 4-hydroxy tamoxifen, Mean ± SD” value ([1]; 1 mg/day, Second cycle Day 20, 24 hr after application)?
The value was 0.0244 ± 0.0201 ng/mL.

What about the “Plasma concentration of 4-hydroxy tamoxifen, Mean ± SD” value ([1]; 1 mg/day, Second cycle Day 25, 0 hr (24 hours after Day 24 application, prior to final application)) of the same molecule?
Its value is 0.0272 ± 0.0208 ng/mL.

And the “Plasma concentration of 4-hydroxy tamoxifen, Mean ± SD” value ([1]; 1 mg/day, Second cycle Day 25, 0.5 hr after application)?
Its value is 0.0259 ± 0.0187 ng/mL.

What about the “Plasma concentration of 4-hydroxy tamoxifen, Mean ± SD” value ([1]; 1 mg/day, Second cycle Day 25, 1 hr after application) of the same molecule?
The value was 0.0287 ± 0.0195 ng/mL.

And the “Plasma concentration of 4-hydroxy tamoxifen, Mean ± SD” value ([1]; 1 mg/day, Second cycle Day 25, 1.5 hr after application)?
Its value is 0.0256 ± 0.0178 ng/mL.

And the “Plasma concentration of 4-hydroxy tamoxifen, Mean ± SD” value ([1]; 1 mg/day, Second cycle Day 25, 2 hr after application)?
The value was 0.0251 ± 0.018 ng/mL.

What about the “Plasma concentration of 4-hydroxy tamoxifen, Mean ± SD” value ([1]; 1 mg/day, Second cycle Day 25, 3 hr after application) of the same molecule?
The value was 0.0248 ± 0.0205 ng/mL.

And the “Plasma concentration of 4-hydroxy tamoxifen, Mean ± SD” value ([1]; 1 mg/day, Second cycle Day 25, 4 hr after application)?
The value was 0.0268 ± 0.0233 ng/mL.

And the “Plasma concentration of 4-hydroxy tamoxifen, Mean ± SD” value ([1]; 1 mg/day, Second cycle Day 25, 6 hr after application)?
Its value is 0.025 ± 0.0182 ng/mL.

And the “Plasma concentration of 4-hydroxy tamoxifen, Mean ± SD” value ([1]; 1 mg/day, Second cycle Day 25, 12 hr after application)?
Its value is 0.0283 ± 0.0229 ng/mL.

And the “Plasma concentration of 4-hydroxy tamoxifen, Mean ± SD” value ([1]; 1 mg/day, Second cycle Day 25, 18 hr after application)?
The value was 0.0234 ± 0.0174 ng/mL.

And the “Plasma concentration of 4-hydroxy tamoxifen, Mean ± SD” value ([1]; 1 mg/day, Second cycle Day 26, 24 hr after last application)?
The value was 0.026 ± 0.0196 ng/mL.

What about the “Plasma concentration of 4-hydroxy tamoxifen, Mean ± SD” value ([1]; 1 mg/day, Second cycle Day 26, 36 hr after last application) of the same molecule?
The value was 0.0257 ± 0.0184 ng/mL.

And the “Plasma concentration of 4-hydroxy tamoxifen, Mean ± SD” value ([1]; 1 mg/day, Second cycle Day 27, 48 hr after last application)?
The value was 0.022 ± 0.016 ng/mL.

And the “Plasma concentration of 4-hydroxy tamoxifen, Mean ± SD” value ([1]; 1 mg/day, Second cycle Day 28, 72 hr after last application)?
Its value is 0.0189 ± 0.0124 ng/mL.

What about the “T(1stC < LOQ), first timepoint at which the plasma concentration was below the limit of quantification, Mean ± SD” value ([1]; 1 mg/day) of the same molecule?
Its value is 236 ± 72 h.

What about the “Plasma concentration of 4-hydroxy tamoxifen, Mean ± SD” value ([1]; 1 mg/day, after the second cycle, +5 days) of the same molecule?
The value was 0.0114 ± 0.0082 ng/mL.

And the “Plasma concentration … Range” value ([1]; 1 mg/day, after the second cycle, +8 days)?
Its value is “(0-14.8) pg/mL”.

And the “AUC0-24, Mean ± SD” value ([1]; 1 mg/day)?
The value was 0.619 ± 0.466 ng·h/mL.

And the “Cav = AUC0-24/24, Mean ± SD” value ([1]; 1 mg/day)?
Its value is 0.0258 ± 0.0194 ng/mL.

And the “Cmax, Mean ± SD” value ([1]; 1 mg/day)?
Its value is 0.0351 ± 0.0224 ng/mL.

What about the “t1/2, Range” value ([1]; 1 mg/day) of the same molecule?
Its value is “(58-118) hr”.

And the “tmax, Mean ± SD” value ([1]; 1 mg/day)?
The value was 12.8 ± 14.9 h.

What about the “Plasma concentration … Range” value ([1]; 2 mg/day, First cycle Day 1, 0 hr) of the same molecule?
Its value is “(0-0) pg/mL”.

What about the “Plasma concentration of 4-hydroxy tamoxifen, Mean ± SD” value ([1]; 2 mg/day, First cycle Day 7, 24 hr after application) of the same molecule?
Its value is 0.0269 ± 0.0182 ng/mL.

And the “Plasma concentration of 4-hydroxy tamoxifen, Mean ± SD” value ([1]; 2 mg/day, First cycle Day 20, 24 hr after application)?
Its value is 0.044 ± 0.0292 ng/mL.

What about the “Plasma concentration of 4-hydroxy tamoxifen, Mean ± SD” value ([1]; 2 mg/day, First cycle Day 25, 24 hr after application) of the same molecule?
Its value is 0.0454 ± 0.031 ng/mL.

What about the “Plasma concentration of 4-hydroxy tamoxifen, Mean ± SD” value ([1]; 2 mg/day, Second cycle Day 7, 24 hr after application) of the same molecule?
The value was 0.0422 ± 0.0248 ng/mL.

What about the “Plasma concentration of 4-hydroxy tamoxifen, Mean ± SD” value ([1]; 2 mg/day, Second cycle Day 20, 24 hr after application) of the same molecule?
The value was 0.0389 ± 0.0271 ng/mL.

And the “Plasma concentration of 4-hydroxy tamoxifen, Mean ± SD” value ([1]; 2 mg/day, Second cycle Day 25, 0 hr (24 hours after Day 24 application, prior to final application))?
The value was 0.0432 ± 0.0277 ng/mL.

And the “Plasma concentration of 4-hydroxy tamoxifen, Mean ± SD” value ([1]; 2 mg/day, Second cycle Day 25, 0.5 hr after application)?
Its value is 0.0445 ± 0.0299 ng/mL.

What about the “Plasma concentration of 4-hydroxy tamoxifen, Mean ± SD” value ([1]; 2 mg/day, Second cycle Day 25, 1 hr after application) of the same molecule?
The value was 0.0405 ± 0.0251 ng/mL.

And the “Plasma concentration of 4-hydroxy tamoxifen, Mean ± SD” value ([1]; 2 mg/day, Second cycle Day 25, 1.5 hr after application)?
Its value is 0.0368 ± 0.0211 ng/mL.

And the “Plasma concentration of 4-hydroxy tamoxifen, Mean ± SD” value ([1]; 2 mg/day, Second cycle Day 25, 2 hr after application)?
Its value is 0.0368 ± 0.0216 ng/mL.

What about the “Plasma concentration of 4-hydroxy tamoxifen, Mean ± SD” value ([1]; 2 mg/day, Second cycle Day 25, 3 hr after application) of the same molecule?
Its value is 0.0361 ± 0.0206 ng/mL.

What about the “Plasma concentration of 4-hydroxy tamoxifen, Mean ± SD” value ([1]; 2 mg/day, Second cycle Day 25, 4 hr after application) of the same molecule?
Its value is 0.0381 ± 0.0212 ng/mL.

What about the “Plasma concentration of 4-hydroxy tamoxifen, Mean ± SD” value ([1]; 2 mg/day, Second cycle Day 25, 6 hr after application) of the same molecule?
Its value is 0.041 ± 0.0291 ng/mL.

And the “Plasma concentration of 4-hydroxy tamoxifen, Mean ± SD” value ([1]; 2 mg/day, Second cycle Day 25, 12 hr after application)?
Its value is 0.0451 ± 0.0306 ng/mL.

And the “Plasma concentration of 4-hydroxy tamoxifen, Mean ± SD” value ([1]; 2 mg/day, Second cycle Day 25, 18 hr after application)?
Its value is 0.0398 ± 0.0255 ng/mL.

And the “Plasma concentration of 4-hydroxy tamoxifen, Mean ± SD” value ([1]; 2 mg/day, Second cycle Day 26, 24 hr after last application)?
Its value is 0.044 ± 0.033 ng/mL.

And the “Plasma concentration of 4-hydroxy tamoxifen, Mean ± SD” value ([1]; 2 mg/day, Second cycle Day 26, 36 hr after last application)?
The value was 0.0421 ± 0.0315 ng/mL.

What about the “Plasma concentration of 4-hydroxy tamoxifen, Mean ± SD” value ([1]; 2 mg/day, Second cycle Day 27, 48 hr after last application) of the same molecule?
Its value is 0.0381 ± 0.0253 ng/mL.

What about the “Plasma concentration of 4-hydroxy tamoxifen, Mean ± SD” value ([1]; 2 mg/day, Second cycle Day 28, 72 hr after last application) of the same molecule?
Its value is 0.0332 ± 0.0222 ng/mL.

And the “T(1stC < LOQ), first timepoint at which the plasma concentration was below the limit of quantification, Mean ± SD” value ([1]; 2 mg/day)?
Its value is 326 ± 97 h.

And the “Plasma concentration of 4-hydroxy tamoxifen, Mean ± SD” value ([1]; 2 mg/day, after the second cycle, +5 days)?
Its value is 0.0204 ± 0.0173 ng/mL.

What about the “Plasma concentration of 4-hydroxy tamoxifen, Mean ± SD” value ([1]; 2 mg/day, after the second cycle, +8 days) of the same molecule?
Its value is 0.0108 ± 0.0134 ng/mL.

What about the “Plasma concentration … Range” value ([1]; 2 mg/day, after the second cycle, +12 days) of the same molecule?
Its value is “(0-30.4) pg/mL”.

And the “AUC0-24, Mean ± SD” value ([1]; 2 mg/day)?
The value was 0.998 ± 0.653 ng·h/mL.

And the “Cav = AUC0-24/24, Mean ± SD” value ([1]; 2 mg/day)?
The value was 0.0416 ± 0.0272 ng/mL.

What about the “Cmax, Mean ± SD” value ([1]; 2 mg/day) of the same molecule?
Its value is 0.0516 ± 0.0317 ng/mL.

What about the “t1/2, Range” value ([1]; 2 mg/day) of the same molecule?
Its value is “(49-101) hr”.

What about the “tmax, Mean ± SD” value ([1]; 2 mg/day) of the same molecule?
Its value is 11.8 ± 12.3 h.

And the “plasma concentrations after the last gel application” value ([1]; 72 hours after the last gel application)?
The value was “remained detectable”.

What about the “plasma concentrations of 4-hydroxy tamoxifen after a single dose” value ([1]; single 0.5 mg dose) of the same molecule?
Its value is “did not produce detectable plasma concentrations”.

What about the “patients with detectable plasma concentrations (>5 pg/mL)” value ([1]; single dose of 1 mg) of the same molecule?
Its value is 6 of 12.

What about the “plasma concentrations of 4-hydroxy tamoxifen compared with typical estradiol concentrations” value ([1]; topical application, 0.5-2 mg/day) of the same molecule?
The value was < 0.08 ng/mL.

What about the “metabolism in cytosolic and nuclear fractions of breast tissue” value [2] of the same molecule?
The value was “remained unmetabolized except for limited isomerization from the Z to the E form”.

And the “retention in the breast” value [2]?
The value was “approximately 4 days”.

What about the “subcellular distribution in breast tissue” value [2] of the same molecule?
The value was “concentrated predominantly in the cytosolic and nuclear fractions of breast tissue”.
